These results are taken from US20190350931A1, “COMBINATION THERAPY” (GlaxoSmithKline Intellectual Property Development Limited, priority 2016, published 2019).

In series [1] the target is PRMT5/MEP50 (Homo sapiens, UniProt O14744). The series can be described thus: PRMT5/MEP50 radioactive assay, 3H transfer from SAM to H4 peptide / protein substrate. The class given is biochemical. Particulars: close analogs of Compound C.
For series [2], the system named is Type I and Type II PRMTs and lysine methyltransferases (KMTs). As to the kind of experiment: Methyltransferase selectivity panel (19 enzymes). The class given is biochemical. Particulars: for selectivity for PRMT5/MEP50 over the other methyltransferases: PRMT5 tool compounds. The source says:
FIG. 6: Phylogenetic tree highlighting the methyltransferases tested in the selectivity panel. […] PRMT9 is shown for relationship purposes only within the family tree and was not evaluated in the panel. Figure adapted from Richon V M. et al.
PRMT9/FBXO11, which is the other Type II PRMT and the only PRMT to lack the THW loop, was not included due to the lack of a functional enzyme assay.

The test system of series [3] is breast and MCL cell lines. As to the kind of experiment: Longer-term (10-12 day) growth/death assay in breast and MCL cell lines. It counts as cell-based. Particulars: for response upon prolonged exposure: SKBR3, MDA-MB-468 and MCF-7 cells, 7-10 days.
The test system of series [4] is SDMA, MDM4 splicing, p53 in GBM and lymphoma cell lines. As to the kind of experiment: SDMA, MDM4 splicing and p53 in GBM and lymphoma cell lines. The class given is cell-based. Particulars: 1 μM. The protocol: Next, effects on cellular methylation and the p53 pathway were evaluated in GBM cells treated with a PRMT5 inhibitor by measuring SDMA, p53 and p21 protein levels and MDM4 splicing (FIG. 27). […] Alternative MDM4 splicing was detected in all cell lines but SF539 which are p53 mutant and have low basal expression of the long MDM4 isoform (FIG. 27, panel A). p53 levels increased in all cell lines, while the induction of p21 protein was observed only in cell lines that have wild-type p53 (Z138 (MCL), U87-MG and A172 (GBM)). […] The role of p53 in the response of GBM cell lines to PRMT5 inhibition will be further tested in future studies. Additionally, the effects of PRMT5 inhibition on cell cycle and neural differentiation in GBM models are being explored.

Series [5] relates to lymphoma cell lines (Z138, Granta-519, DOHH2, RL). The series can be described thus: RNA-sequencing of lymphoma cell lines. The class given is cell-based. The protocol: FIG. 12: Gene expression changes in lymphoma cell lines treated with a PRMT5 inhibitor. A. Quantification of differentially expressed (DE) genes in lymphoma cell lines after Compound B (0.1 and 0.5 μM) treatment (days 2 and 4). B. Overlap of DE genes across lymphoma lines.
A. Mechanisms of regulation of cellular splicing (adapted from Bezzi M. et al.). B. Analysis of intron expression in lymphoma lines treated with 0.1 or 0.5 μM Compound B.
A. Quantification of isoform switches in 4 lymphoma cell lines treated with Compound B (0.1 and 0.5 μM) for 2 and 4 days. B. Overlap of isoform switches in 4 lymphoma lines. C. List of genes that undergo alternative splicing in all 4 lymphoma lines (overlap of 4 cell lines).
PRMT5 methylates histones and proteins involved in RNA processing and therefore PRMT5 inhibition is expected to have a profound effect on cellular mRNA homeostasis. To further decipher cellular mechanisms that are regulated by PRMT5 and contribute to the cellular response to PRMT5 inhibitors, global gene expression changes were evaluated in lymphoma models sensitive to PRMT5 inhibition. […]
First, gene expression changes were evaluated in lymphoma lines treated with increasing concentrations of PRMT5 tool molecule for 2 and 4 days (FIG. 12). […] The relevance of these genes in the mechanism of cellular response to PRMT5 inhibition is being evaluated. […]

The test system of series [6] is panel of cancer cell lines. It counts as cell-based. The text has this:
DLBCL-diffuse large B-cell lymphoma, GBM-glioblastoma, MCL-mantle cell lymphoma, MM-multiple myeloma
The cell lines were selected to represent tumor types where PRMT5 activity has been reported to regulate key pathways and/or cell growth and survival (such as lymphoma and MCL, glioma, breast and lung cancer lines).

Series [7] relates to MCL cell lines. As to the kind of experiment: 6-day growth/death assay in a panel of MCL lines. The class given is cell-based. The text has this:
FIG. 18: Activity of PRMT5 inhibitor and ibrutinib as single agents and in combination in MCL cell lines. […] C.
• The strongest mechanistic link currently described between PRMT5 and cancer is in MCL. PRMT5 is frequently overexpressed in MCL and is highly expressed in the nuclear compartment where it increases levels of histone methylation and silences a subset of tumor suppressor genes. Importantly, cyclin D1, the oncogene that is translocated in the vast majority of MCL patients, associates with PRMT5 and through a cdk4-dependent mechanism increases PRMT5 activity. PRMT5 mediates the suppression of key genes that negatively regulate DNA replication allowing for cyclin D1-dependent neoplastic growth. PRMT5 knockdown inhibits cyclin D1-dependent cell transformation causing death of tumor cells.

In series [8] the test system is GBM cell lines. The series can be described thus: 2D 6-day growth/death CTG assay in GBM cell lines. It counts as cell-based. Particulars: with the exception of SF539.
Series [9] has as its system MDM4 splicing, p53 and p21 in MCL lines. As to the kind of experiment: MDM4 splicing (RT-PCR) and p53/p21 western in MCL lines. The class given is cell-based. Particulars: for p53 and p21 expression: Z138 cells, 200 nM Compound C, 5 μM Nutlin-3. The protocol: To understand whether p53 activation is associated with MDM4 isoform switching, MDM4 alternative splicing was analyzed. […] The role of the p53 pathway in the biology of the response of p53 wild-type MCL cells to PRMT5 inhibition is being evaluated.

The test system of series [10] is SDMA, MDM4 splicing, p53/p21 in Z138 cells. The series can be described thus: Dose-response of MDM4 splicing, SDMA and p53/p21 in Z138 cells. It counts as cell-based.
Series [11] concerns Z-138 MCL xenograft. The series can be described thus: 21-day efficacy study in Z-138 MCL xenograft model. The class given is in vivo. The protocol:
B. Quantified SDMA western data from tumors harvested at the end of the efficacy study (3 hours post last dose).

The test system of series [12] is breast cancer lines. The series can be described thus: Propidium iodide FACS cell cycle analysis of breast cancer lines. The class given is cell-based.
Series [13] deals with MDA-MB-468 xenograft. The series can be described thus: MDA-MB-468 triple negative breast cancer xenograft model. The class given is in vivo. The protocol: Next, the efficacy of PRMT5 inhibition was evaluated in in vivo models of breast cancer.
Series [14] deals with GBM cell lines. The series can be described thus: 2D 14-day growth/death CTG assay in GBM cell lines. It counts as cell-based. Particulars: only SF539 underwent apoptosis.
Setting [15] is: Z-138 (MCL) cells, all time points (days 3-10).
[16] abbreviates: ZR-75-1 cells, all time points (days 3-12).

PRMT5/MEP50, sequence (O14744 whole entry): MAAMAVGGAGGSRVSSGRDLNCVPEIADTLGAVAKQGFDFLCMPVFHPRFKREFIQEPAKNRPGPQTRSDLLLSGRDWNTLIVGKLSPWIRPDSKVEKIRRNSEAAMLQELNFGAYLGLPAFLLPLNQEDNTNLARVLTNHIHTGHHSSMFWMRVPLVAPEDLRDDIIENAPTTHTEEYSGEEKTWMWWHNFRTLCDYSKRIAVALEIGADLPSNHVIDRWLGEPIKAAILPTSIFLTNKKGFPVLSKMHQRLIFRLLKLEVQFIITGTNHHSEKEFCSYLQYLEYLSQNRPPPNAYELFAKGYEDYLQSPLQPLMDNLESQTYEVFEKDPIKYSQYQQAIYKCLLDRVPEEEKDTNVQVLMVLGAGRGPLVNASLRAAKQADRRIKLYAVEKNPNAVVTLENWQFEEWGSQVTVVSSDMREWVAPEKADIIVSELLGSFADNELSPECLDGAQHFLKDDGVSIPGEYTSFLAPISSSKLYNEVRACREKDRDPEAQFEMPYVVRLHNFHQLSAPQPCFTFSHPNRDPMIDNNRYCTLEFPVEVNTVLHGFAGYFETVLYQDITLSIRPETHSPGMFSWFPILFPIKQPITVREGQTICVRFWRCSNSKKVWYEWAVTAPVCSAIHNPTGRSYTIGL
PRMT5/MEP50, sequence (Q9BQA1 whole entry partner): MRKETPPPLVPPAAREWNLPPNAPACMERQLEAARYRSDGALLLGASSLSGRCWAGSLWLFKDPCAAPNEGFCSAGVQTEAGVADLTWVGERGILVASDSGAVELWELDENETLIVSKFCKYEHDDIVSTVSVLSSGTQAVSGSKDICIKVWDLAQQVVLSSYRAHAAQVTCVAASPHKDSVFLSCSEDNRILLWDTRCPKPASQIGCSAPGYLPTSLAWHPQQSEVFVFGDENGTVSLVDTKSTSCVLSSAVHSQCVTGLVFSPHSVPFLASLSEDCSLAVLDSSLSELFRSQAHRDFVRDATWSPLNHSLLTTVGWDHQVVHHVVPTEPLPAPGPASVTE

In the case of `O=C(NC[C@H](O)CN1CCc2ccccc2C1)c1ccnc(NC2CCC2)c1` [Compound B], the “inhibitory potency compared with Compound C” value in [1] was “similar”. The “selectivity for PRMT5/MEP50 over the other methyltransferases” value (“selectivity for PRMT5/MEP50” below) in series [2] is “Selectivity for PRMT5/MEP50 over the other methyltransferases was also observed”. Besides, the “response upon prolonged exposure” value in [3] is “cytotoxic response”. The response result in series [3] (setting [15]) is given as “profound overall net cell death”. In series [3] (setting [16]), the response entry is given as “cytostatic response”. Also, in [4], the MDM4 splicing entry is “induces alternative splicing of MDM4”, the SDMA levels entry is “decreases SDMA levels” and the p53 entry was “activates p53”. The isoform switching result in series [5] (0.1 and 0.5 μM, 2 and 4 days) is “induces isoform switching for a subset of genes”. In addition, the intron splicing result in [5] (0.1 or 0.5 μM) is reported as “attenuates the splicing of a subset of introns”.
Turning to `CC(=O)N1CCC(Nc2cc(C(=O)NC[C@H](O)CN3CCc4ccccc4C3)ncn2)CC1` [Compound C], the “potency for any other tested enzyme” value in series [2] (FIG. 6 legend) is given as > 10^−5 M. Also, the “growth response of breast cancer cell lines” value in series [6] (6-day growth/death assay) is listed as “complete growth inhibition”. For the same compound, in [6] (most sensitive lymphoma lines (MCL and DLBCL)), the gIC50 entry is reported as “single digit”. Further, in series [7], the “sensitivity (gIC50) of Z-138, Maver-1 and JVM-2” value was “low”; the “sensitivity of Mino, Jeko-1” value was “only moderately sensitive”. Further, the “nature of the response” value in series [8] is listed as “largely cytostatic”. Besides, the MDM4 isoform switching entry in series [9] (Z138 and JVM-2 cells (both p53 wild-type)) was “induced MDM4 isoform switching”. For the same compound, the “p53 and p21 expression” value in [9] was “increased p53 and p21 expression to similar levels”. Further, in series [10], the “MDM4 RNA splicing and SDMA/p53/p21 levels” value is reported as “induces dose-dependent changes”; the “concentration above which SDMA levels were undetectable by Western blot” value is on record as “above 8 nM”; the “concentration above which changes in MDM4 splicing and p53/p21 protein expression were apparent” value is listed as “above 8 nM”. In series [11] (all groups in all efficacy studies presented), the body weight loss entry is on record as “no body weight loss”. Moreover, in series [11] (summary for the xenograft models of mantle cell lymphoma), the tumour growth inhibition (TGI) is listed as around 100%. Besides, the “response upon prolonged exposure” value in series [3] is recorded as “cytotoxic response”. The response entry in series [3] (setting [15]) is reported as “profound overall net cell death”. In series [3] (setting [16]), the response result was “cytostatic response”. Further, the “cell death (increase in <2N)” value in [12] (3 out of 4 breast cancer lines, after 7-10 days of treatment) is on record as “induction of cell death”. Moreover, in series [12] (MCF-7 cells (p53 wild-type), day 2), the cell cycle distribution entry is given as “accumulation of cells in G1 phase (2N)”. Moreover, the cell cycle distribution result in [12] (MDA-MB-468 and SKBR-3, day 7 or day 10) is given as “decrease in G1 (2N) phase”. In addition, the cell cycle distribution entry in series [12] (ZR-75-1 cells (p53 wild-type)) was “minor effects on cell cycle distribution”. Further, the “tumor growth inhibition (TGI)” value in series [13] (100 mg/kg BID) turned out to be 83%. In [13] (100 mg/kg QD), the efficacy entry was “not efficacious”. The “nature of the cytostatic/cytotoxic response upon longer exposure” value in [14] is “did not change”.
For the compound `O=C(NC[C@H](O)CN1CCc2ccccc2C1)c1cc(NC2COC2)ncn1` [Compound E], the “inhibitory potency compared with Compound C” value in [1] is “similar”. Moreover, in [2], the “selectivity for PRMT5/MEP50” value is recorded as “Selectivity for PRMT5/MEP50 over the other methyltransferases was also observed”.
`CC(=O)N1CCC(Nc2cc(C(=O)NC[C@H](O)CN3CCc4ccccc4C3)ccn2)CC1` [Compound F]: the “inhibitory potency compared with Compound C” value in series [1] is listed as “similar”. Also, in [2], the “selectivity for PRMT5/MEP50” value was “Selectivity for PRMT5/MEP50 over the other methyltransferases was also observed”.
In the case of `COc1ccc(C2=N[C@@H](c3ccc(Cl)cc3)[C@@H](c3ccc(Cl)cc3)N2C(=O)N2CCNC(=O)C2)c(OC(C)C)c1` [Nutlin-3, reference compound], the “p53 and p21 expression” value in [9] is “increased p53 and p21 expression to similar levels”.
